Data taken from patent publication US7375124B2, “Use of α-phenylthiocarboxylic and α-phenyloxycarboxylic acids with serum-glucose-lowering and serum-lipid-lowering activity” (Sigma-Tau Industrie Farmaceutiche Riunite S.p.A., priority 2002, dated 2008).

Key:
mPPARαLBD/Gal4DBD = target: T1, mPPARαLBD/Gal4DBD (Mus musculus, UniProt P23204); test: Transactivation assay mediated by mPPARαLBD/Gal4DBD in COS-7 cells (CAT reporter); type: cell-based
T1 construct: expressed in transfected cells; host or cells: COS-7 (monkey kidney fibroblasts)
T1 sequence (P23204 239-466 limits assumed): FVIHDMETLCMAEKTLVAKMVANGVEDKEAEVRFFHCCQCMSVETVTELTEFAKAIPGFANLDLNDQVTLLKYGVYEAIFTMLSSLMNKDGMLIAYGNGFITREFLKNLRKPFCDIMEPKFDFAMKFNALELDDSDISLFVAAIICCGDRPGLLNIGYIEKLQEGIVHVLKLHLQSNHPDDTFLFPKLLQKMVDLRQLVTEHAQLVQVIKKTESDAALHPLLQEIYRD
Text: In this model a transactivation assay is used in which the expression vector mPPARαLBD/Gal4 DBD allows the synthesis by the transfected cell of a chimeric protein, in which the ligand binding domain (LBD) of PPARα is fused with the DNA binding domain (DBD) of the transcription factor GAL4 of yeast [Luckow B. et al., Nucleic Acids Res. 15, 5490 (1987)]. Simultaneously, a plasmid (pG5CAT) is transfected which contains 5 copies of the high-affinity binding site for GAL4 (also called UAS, upstream activating sequence), upstream of the viral promoter E1b fused with the CAT reporter gene [Moya-Camarena S. Y. et al., J. Lipid Res. 40 (8), 1426-33 (1999)]. This model eliminates interference by possible endogenous receptors.
This is due to the fact that the activation of E1b and the production of CAT will occur exclusively thanks to the interaction of GAL4 DBD with its own response element (UAS). Since the transcription factor GAL4 is not expressed in […] cells, transactivation of the reporter gene can take place only when, as a result of the interaction of a ligand with the LBD of PPARα, the chimeric protein PPARα/GAL4 recognises the UAS sequence on the plasmid pG5CAT. Together with the expression vector and the reporter vector the cells were also transfected with the plasmid pCH110 which provides the internal control for the efficiency of transfection and the normalisation of the results.
A monkey kidney fibroblast cell line (COS-7) was used [Elbrecht A. et al., J. Biol. Chem. 274 (12), 7913-22 (1999)]. The cells were co-transfected with the reporter vector, the expression plasmid coding for the fusion protein Gal4 DBD/PPARαLBD and the control vector pCH110. The cells were exposed to increasing concentrations of the study compounds and CAT activity was evaluated. Untreated cells were used as controls.
Monkey kidney fibroblasts (COS-7) were cultured according to the usual cell culture techniques, at 37° C. in a 5% v/v carbon dioxide atmosphere using as the growth medium DMEM (Dulbecco's modified Eagle's medium) modified with 3.7 g/l of sodium bicarbonate, 4 mM L-glutamine, 4.5 g/l of glucose, 1 mM sodium pyruvate and 10% v/v of foetal bovine serum, in the presence of streptomycin 100 μg/ml and penicillin 100 U/ml final.
The cells were co-transfected using the transfection reagent FuGENE6 (Roche), consisting of a defined mixture of lipids capable of complexing the DNA and of transporting it into the cells. Twenty-four hours prior to transfection the cells were plated at a density of 1.2×10^5 cells/well in 12-well plates and maintained at 37° C. in a 5% v/v CO2 atmosphere. […] Briefly, the transfection mixture containing 0.8 μg of the expression vector, 1.6 μg of the reporter vector, 0.8 μg of the control vector and 9 μl of the FuGENE6 reagent per well was added directly to the cells in the presence of culture medium devoid of serum. After 5 hours, the transfection medium was replaced by 1 ml of culture medium complete with serum and antibiotics in the presence or absence of the molecules to be tested at 3 different concentrations (2, 20 and 100 μM). Wy-14,643 (2 μM), a known ligand of PPARα, was used as the positive reference compound.
After 48 hours' incubation at 37° C. in a 5% v/v CO2 atmosphere, the cells were washed twice with 1 ml of phosphate buffer (PBS) and removed mechanically from the wells in TEN buffer (Tris[hydroxymethyl]aminomethane 10 mM pH 8, ethylenediamine-tetraacetic acid 1 mM pH 8, sodium chloride 0.1 M). After centrifuging for 3 minutes at 1000 rpm, the cells were resuspended in 65 μl of lysis buffer (Tris-HCl 0.25 M, pH 8) and then lysed thanks to three rapid freeze-thaw cycles. The insoluble cellular materials (debris) were removed by centrifuging at 15,000 rpm for 15 minutes at 4° C., and the supernatant was recovered and used for the CAT and β-galactosidase activity assays. […]

C57BL/KsJ db/db mouse = test: Antidiabetic and serum-lipid-lowering activity in the db/db mouse (Experiments I and II); conditions: Experiment II; for Glucose: blood
Text: Plasma levels of glucose, insulin, triglycerides, cholesterol, free fatty acids and urea were checked for a well-matched distribution of mice in the treatment groups.
At the start of treatment the body weights of the mice were checked and arrangements were made for monitoring water and feed consumption.
In the course of the experiment, serum glucose levels, oral glucose tolerance test (OGTT) findings, a number of lipid status parameters and weight gain were monitored.

[1] = after 12 days' treatment, postabsorption, 7.5 hours after last treatment, mean ± S.E.

Compound: CC(C)(Sc1cccc(OCCc2ccc(Cl)cc2)c1)C(=O)O [Example 2, 2-[3-[2-(4-chlorophenyl)ethoxy]phenylthio]-2-methylpropanoic acid]
- melting point: 105 to 106 °C
- Activation of reporter gene CAT as a percentage of the reference compound (WY-14,643 2 μM = 100%) (mPPARαLBD/Gal4DBD; 2 μM): 69.7%
- Activation of reporter gene CAT as a percentage of the reference compound (WY-14,643 2 μM = 100%) (mPPARαLBD/Gal4DBD; 20 μM): 103.6%
- Activation of reporter gene CAT as a percentage of the reference compound (WY-14,643 2 μM = 100%) (mPPARαLBD/Gal4DBD; 100 μM): 280.9%
- Variation % (glucose) vs control (C57BL/KsJ db/db mouse; after 9 days' treatment, postabsorption, 8 hours after last treatment): −66%
- Variation % (AUC glucose at OGTT) vs control (C57BL/KsJ db/db mouse; after 11 days' treatment, OGTT glucose 3 g/kg): −43%
- AUC glucose at OGTT (C57BL/KsJ db/db mouse; after 11 days' treatment, OGTT glucose 3 g/kg, fasting 18 hours, 5 hours after last treatment, mean ± S.E.): 24517 ± 2261 a.u.
- Variation % (glucose) vs control (C57BL/KsJ db/db mouse; after 11 days' treatment, fasting 18 hours, 5 hours after last treatment): −48%
- Variation % (HDL-cholesterol) vs control (C57BL/KsJ db/db mouse; after 12 days' treatment): +19%
- Variation % (final b.w.) vs control (C57BL/KsJ db/db mouse; after 12 days' treatment): +5%
- Variation % (triglycerides) vs control (C57BL/KsJ db/db mouse; after 12 days' treatment): −44%
- Glucose (plasma) (C57BL/KsJ db/db mouse; after 12 days' treatment, postabsorption (fasting 9 a.m. to 4.30 p.m.), 7.5 hours after last treatment, mean ± S.E.): 263 ± 30 mg/dL
- Variation % (plasma glucose) vs control (C57BL/KsJ db/db mouse; after 12 days' treatment, postabsorption, 7.5 hours after last treatment): −54%
- HDL-choles. (plasma) (C57BL/KsJ db/db mouse; [1]): 102.5 ± 4.7Δ mg/dl
- Triglycerides (plasma) (C57BL/KsJ db/db mouse; [1]): 48.6 ± 2.5 mg/dL
- Glucose (C57BL/KsJ db/db mouse; after 9 days' treatment, postabsorption (fasting 9 a.m. to 5 p.m.), 8 hours after last treatment, mean ± S.E.): 155 ± 21 mg/dL
- Glucose (C57BL/KsJ db/db mouse; after 11 days' treatment, fasting 18 hours, 5 hours after last treatment, mean ± S.E.): 128 ± 8 mg/dL
- Final b.w. (C57BL/KsJ db/db mouse; final body weight after 12 days' treatment, postabsorption condition, mean ± S.E.): 39.4 ± 0.9 g
- Variation % (initial b.w.) vs control (C57BL/KsJ db/db mouse; initial body weight): −3%
- Initial b.w. (C57BL/KsJ db/db mouse; initial body weight, postabsorption condition, mean ± S.E.): 37.8 ± 0.5 g
